Among the data in US20110105509A1 (Wyeth, LLC, priority 2009, published 2011) are IC50 values, retold here.

One may read the IC50 as the concentration that inhibits the measured activity by half.

Where only a bound is given, the exact number is not on record here.

The target of this test is T1, CRTH2 (Homo sapiens, UniProt Q9Y5Y4).
T1 construct: expressed in transfected cells; host or cells: CHO cells
T1 sequence (Q9Y5Y4 1-395): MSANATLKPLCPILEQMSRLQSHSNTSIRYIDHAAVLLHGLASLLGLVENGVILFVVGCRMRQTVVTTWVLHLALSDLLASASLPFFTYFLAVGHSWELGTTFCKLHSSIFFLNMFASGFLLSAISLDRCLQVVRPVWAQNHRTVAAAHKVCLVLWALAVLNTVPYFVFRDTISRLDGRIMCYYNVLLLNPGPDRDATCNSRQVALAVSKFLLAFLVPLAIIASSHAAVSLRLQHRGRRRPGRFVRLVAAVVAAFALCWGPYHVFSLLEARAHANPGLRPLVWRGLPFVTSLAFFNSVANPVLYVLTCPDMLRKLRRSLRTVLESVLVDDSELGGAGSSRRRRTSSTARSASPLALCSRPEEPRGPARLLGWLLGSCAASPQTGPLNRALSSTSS
Nature of the test: FRET based competitive immunoassay (cAMP) in CRTH2 expressing CHO cells. Type of test: cell-based. The settings on record: CRTH2 expressing CHO cells incubated with forskolin and PGD2; Eu3+ cryptate-labeled anti-cAMP and d2-labeled cAMP. On the procedure: FRET Assay: To evaluate potency compounds were tested in a FRET based competitive immunoassay in which CRTH2 expressing CHO cells were incubated in the presence of forskolin and PGD2 along with Eu3+ cryptate-labeled anti-cAMP and d2-labeled cAMP.
With `Cc1c(-c2cn(CC(F)(F)F)c(=O)c3c2CCCC3)c2cc(F)ccc2n1CC(=O)O` [Example 90, 2-(5-fluoro-2-methyl-3-(1-oxo-2-(2,2,2-trifluoroethyl)-1,2,5,6,7,8-hexahydro-isoquinolin-4-yl)-1H-indol-1-yl)acetic acid], the IC50 is greater than 1000 nM.

Compound `Cc1c(-c2ccc(=O)n(Cc3ccncc3)c2)c2cc(F)ccc2n1CC(=O)O` [Example 308, 2-(5-fluoro-2-methyl-3-(6-oxo-1-(pyridin-4-ylmethyl)-1,6-dihydropyridin-3-yl)-1H-indol-1-yl)acetic acid] returned a concentration for half-maximal inhibition (IC50) of 35 nM.

In turn, `Cc1c(-c2nn(Cc3ccncc3)c(=O)c3ccccc23)c2cc(F)ccc2n1CC(=O)O` [Example 134, 2-(5-fluoro-2-methyl-3-(4-oxo-3-(pyridin-4-ylmethyl)-3,4-dihydrophthalazin-1-yl)-1H-indol-1-yl)acetic acid] came in with an IC50 of 3 nM.

Turning to `Cc1c(-c2nn(CC(C)(C)Oc3ccccc3)c(=O)c3ccccc23)c2cc(F)ccc2n1CC(=O)O` [Example 220, 2-(5-fluoro-2-methyl-3-(3-(2-methyl-2-phenoxypropyl)-4-oxo-3,4-dihydrophthalazin-1-yl)-1H-indol-1-yl)acetic acid], the IC50 stood at 18 nM.

`Cc1c(-c2ccc(=O)n(Cc3ccc(S(C)(=O)=O)cc3)n2)c2cc(Cl)ccc2n1CC(=O)O` [Example 66, 2-(5-chloro-2-methyl-3-(1-(4-(methylsulfonyl)benzyl)-6-oxo-1,6-dihydropyridazin-3-yl)-1H-indol-1-yl)acetic acid] came in with a half-maximal inhibitory concentration (IC50) of 143 nM.

`COc1ccc(Cn2nc(-c3c(C)n(CC(=O)O)c4ccc(Cl)cc34)ccc2=O)cc1` [Example 148, 2-(5-chloro-3-(1-(4-methoxybenzyl)-6-oxo-1,6-dihydropyridazin-3-yl)-2-methyl-1H-indol-1-yl)acetic acid]: the IC50 is 42 nM.

As for `Cc1c(-c2ccc(=O)n(Cc3ccccc3)n2)c2cc(F)ccc2n1C(=O)c1cccnc1` [Example 262b, 2-benzyl-6-(5-fluoro-2-methyl-1-nicotinoyl-1H-indol-3-yl)pyridazin-3(2H)-one], the IC50 was greater than 10000 nM.

`Cc1c(-c2nn(Cc3ccccc3)c(=O)c3ccccc23)c2cc(F)ccc2n1CC(=O)O` [Example 328, [3-(3-benzyl-4-oxo-3,4-dihydrophthalazin-1-yl)-5-fluoro-2-methyl-1H-indol-1-yl]-acetic acid] showed an IC50 of 12 nM.

`Cc1c(-c2nn(Cc3nc4cc(Cl)ccc4s3)c(=O)c3ccccc23)c2cc(Cl)ccc2n1CC(=O)O` [Example 209, 2-(5-chloro-3-(3-((5-chlorobenzo[d]thiazol-2-yl)methyl)-4-oxo-3,4-dihydro-phthalazin-1-yl)-2-methyl-1H-indol-1-yl)acetic acid]: the IC50 was found to be 14 nM.

For the compound `Cc1c(Cc2ccc(=O)n(Cc3ccccc3F)n2)c2cc(F)ccc2n1CC(=O)O` [Example 340, (3-{[1-(2-fluorobenzyl)-6-oxo-1,6-dihydropyridazin-3-yl]methyl}-5-fluoro-2-methyl-1H-indol-1-yl)acetic acid], the IC50 came to 3 nM.

Regarding `Cc1c(-c2ccc(=O)n(Cc3ccccc3)n2)c2cc(F)ccc2n1Cc1ccccc1` [Example 262c, 6-(1-benzyl-5-fluoro-2-methyl-1H-indol-3-yl)-2-benzylpyridazin-3(2H)-one], the IC50 is greater than 10000 nM.

The compound `Cc1c(-c2nn(Cc3ccccc3C(F)(F)F)c(=O)c3ccccc23)c2cc(Cl)ccc2n1CC(=O)O` [Example 199, 2-(5-chloro-2-methyl-3-(4-oxo-3-(2-(trifluoromethyl)benzyl)-3,4-dihydrophthalazin-1-yl)-1H-indol-1-yl)acetic acid] displayed an IC50 of 19 nM.

In turn, `Cc1c(-c2ccc(=O)n(CC(C)(C)Oc3ccccc3)n2)c2cc(F)ccc2n1CC(=O)O` [Example 230, 2-(5-fluoro-2-methyl-3-(1-(2-methyl-2-phenoxypropyl)-6-oxo-1,6-dihydropyridazin-3-yl)-1H-indol-1-yl)acetic acid] gave an IC50 of 232 nM.

Compound `Cc1c(-c2nn(CCc3ccc(F)cc3)c(=O)c3ccccc23)c2ccccc2n1CC(=O)O` [Example 224, 2-(3-(3-(4-fluorophenethyl)-4-oxo-3,4-dihydrophthalazin-1-yl)-2-methyl-1H-indol-1-yl)acetic acid] yielded an IC50 of 93 nM.

Turning to `Cc1c(-c2nn(CC3CC3)c(=O)c3ccccc23)c2ccccc2n1CC(=O)O` [Example 176, 2-(3-(3-(cyclopropylmethyl)-4-oxo-3,4-dihydrophthalazin-1-yl)-2-methyl-1H-indol-1-yl)acetic acid], the IC50 was 123 nM.

On to `Cc1c(Cc2ccc(=O)n(Cc3ccc(C(C)(C)O)cc3)n2)c2cc(F)ccc2n1CC(=O)O` [Example 238, 2-(5-fluoro-3-((1-(4-(2-hydroxypropan-2-yl)benzyl)-6-oxo-1,6-dihydropyridazin-3-yl)methyl)-2-methyl-1H-indol-1-yl)acetic acid], for which the IC50 was found to be 13 nM.

As for `Cc1c(-c2nn(CCCC(F)(F)F)c(=O)c3ccccc23)c2cc(F)ccc2n1CC(=O)O` [Example 125, 2-(5-fluoro-2-methyl-3-(4-oxo-3-(4,4,4-trifluorobutyl)-3,4-dihydro-phthalazin-1-yl)-1H-indol-1-yl)acetic acid], the IC50 worked out at 4 nM.

On to `Cc1c(-c2ccc(=O)n(CCc3ccccc3)n2)c2ccccc2n1CC(=O)O` [Example 228, 2-(2-methyl-3-(6-oxo-1-phenethyl-1,6-dihydropyridazin-3-yl)-1H-indol-1-yl)acetic acid], for which the IC50 was 147 nM.

With `Cc1ccc2c(c1)c(-c1nn(Cc3ccccc3)c(=O)c3ccccc13)c(C)n2CC(=O)O` [Example 192, 2-(3-(3-Benzyl-4-oxo-3,4-dihydrophthalazin-1-yl)-2,5-dimethyl-1H-indol-1-yl)acetic acid], the IC50 was determined as 4 nM.

Take `Cc1c(-c2nn(CC(C)(C)O)c(=O)c3ccccc23)c2cc(F)ccc2n1CC(=O)O` [Example 129, 2-(5-fluoro-3-(3-(2-hydroxy-2-methylpropyl)-4-oxo-3,4-dihydrophthalazin-1-yl)-2-methyl-1H-indol-1-yl)acetic acid]: the IC50 was 136 nM.

Compound `Cc1c(-c2ccc(=O)n(Cc3cccnc3)c2)c2cc(F)ccc2n1CC(=O)O` [Example 315, 2-(5-fluoro-2-methyl-3-(6-oxo-1-(pyridin-3-ylmethyl)-1,6-dihydropyridin-3-yl)-1H-indol-1-yl)acetic acid] came in with an IC50 of 32 nM.

The compound `Cc1c(-c2ccc(=O)n(CC(F)(F)F)c2)c2cc(Cl)ccc2n1CC(=O)O` [Example 281, 2-(5-chloro-2-methyl-3-(6-oxo-1-(2,2,2-trifluoroethyl)-1,6-dihydropyridin-3-yl)-1H-indol-1-yl)acetic acid] showed an IC50 of 240 nM.

Turning to `Cc1c(Cc2ccc(=O)n(Cc3cc(F)ccc3F)c2)c2cc(F)ccc2n1CC(=O)O` [Example 26, 2-(3-((1-(2,5-Difluorobenzyl)-6-oxo-1,6-dihydropyridin-3-yl)methyl)-5-fluoro-2-methyl-1H-indol-1-yl)acetic acid], the IC50 amounted to 8 nM.

Compound `Cc1c(-c2nn(Cc3ccncc3F)c(=O)c3ccccc23)c2cc(F)ccc2n1CC(=O)O` [Example 138, 2-(5-fluoro-3-(3-((3-fluoropyridin-4-yl)methyl)-4-oxo-3,4-dihydrophthalazin-1-yl)-2-methyl-1H-indol-1-yl)acetic acid] registered an IC50 of 5 nM.

`Cc1c(-c2ccc(=O)n(Cc3ccc(S(C)(=O)=O)cc3)n2)c2cc(F)ccc2n1CC(=O)O` [Example 73, 2-(5-fluoro-2-methyl-3-(1-(4-(methylsulfonyl)benzyl)-6-oxo-1,6-dihydro-pyridazin-3-yl)-1H-indol-1-yl)acetic acid] yielded an IC50 of 76 nM.

`Cc1c(Cc2ccc(=O)n(Cc3ccccn3)n2)c2cc(F)ccc2n1CC(=O)O` [Example 196, 2-(5-fluoro-2-methyl-3-((6-oxo-1-(pyridin-2-ylmethyl)-1,6-dihydropyridazin-3-yl)methyl)-1H-indol-1-yl)acetic acid] gave an IC50 of 18 nM.

`Cc1c(-c2nn(Cc3c(F)cccc3F)c(=O)c3ccccc23)c2cc(Cl)ccc2n1CC(=O)O` [Example 101, 2-(5-chloro-3-(3-(2,6-difluorobenzyl)-4-oxo-3,4-dihydrophthalazin-1-yl)-2-methyl-1H-indol-1-yl)acetic acid]: the IC50 is 10 nM.

Compound `Cc1cc(Cn2nc(-c3c(C)n(CC(=O)O)c4ccc(Cl)cc34)ccc2=O)c2ccccc2n1` [Example 145, 2-(5-chloro-2-methyl-3-(1-((2-methylquinolin-4-yl)methyl)-6-oxo-1,6-dihydropyridazin-3-yl)-1H-indol-1-yl)acetic acid] had an IC50 of 144 nM.

`Cc1c(-c2nn(C)c(=O)c3ccccc23)c2cc(F)ccc2n1CC(=O)O` [Example 120, 2-(5-fluoro-2-methyl-3-(3-methyl-4-oxo-3,4-dihydrophthalazin-1-yl)-1H-indol-1-yl)acetic acid] had an IC50 of 201 nM.

Take `Cc1c(-c2ccc(=O)n(Cc3cc(F)c(F)cc3F)n2)c2ccccc2n1CC(=O)O` [Example 187, 2-(2-methyl-3-(6-oxo-1-(2,4,5-trifluorobenzyl)-1,6-dihydropyridazin-3-yl)-1H-indol-1-yl)acetic acid]: the IC50 was found to be 75 nM.

In turn, `Cc1c(Cc2ccc(=O)n(Cc3ccccc3)n2)c2cc(Cl)ccc2n1CC(=O)O` [Example 80, 2-(3-((1-Benzyl-6-oxo-1,6-dihydropyridazin-3-yl)methyl)-5-chloro-2-methyl-1H-indol-1-yl)acetic acid] gave a half-maximal inhibitory concentration (IC50) of 16 nM.
